Assay results taken from ChEMBL document CHEMBL1201862, “PubChem BioAssay data set” (2004).
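Each compound was tested at five concentrations against cells in 96-well plates for 48 hours. GI50 is the concentration that inhibits growth by half.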 Calls of active or inactive are those of the source. Rule as the data show it: active = GI50 up to about 1.1 µM and inactive = higher.

Legend:
Experiment in all cases: NCI anticancer screen, dose series, 48 h
HOP-62 = tested on: HOP-62
SF-268 = tested on: SF-268
CCRF-CEM = tested on: CCRF-CEM
OVCAR-4 = tested on: OVCAR-4
786-0 = tested on: 786-0
CAKI-1 = tested on: CAKI-1
NCI-H226 = tested on: NCI-H226
PC-3 = tested on: PC-3
COLO 205 = tested on: COLO 205
UACC-62 = tested on: UACC-62
NCI-H522 = tested on: NCI-H522
HCT-116 = tested on: HCT-116
SK-MEL-28 = tested on: SK-MEL-28
SW-620 = tested on: SW-620
NCI-H460 = tested on: NCI-H460
MOLT-4 = tested on: MOLT-4
UO-31 = tested on: UO-31
IGROV-1 = tested on: IGROV-1
NCI-H23 = tested on: NCI-H23
BT-549 = tested on: BT-549
OVCAR-3 = tested on: OVCAR-3
MDA-MB-435 = tested on: MDA-MB-435
KM12 = tested on: KM12
OVCAR-8 = tested on: OVCAR-8
UACC-257 = tested on: UACC-257
OVCAR-5 = tested on: OVCAR-5
ACHN = tested on: ACHN
A498 = tested on: A498
LOX IMVI = tested on: LOX IMVI
RXF 393 = tested on: RXF 393
K562 = tested on: K562
MDA-MB-231 = tested on: MDA-MB-231
SF-295 = tested on: SF-295
EKVX = tested on: EKVX
TK-10 = tested on: TK-10
Malme-3M = tested on: Malme-3M
HT-29 = tested on: HT-29
HOP-92 = tested on: HOP-92
U-251 = tested on: U-251
SK-MEL-5 = tested on: SK-MEL-5
SF-539 = tested on: SF-539
NCI/ADR-RES = tested on: NCI/ADR-RES
HL-60 = tested on: HL-60
DU-145 = tested on: DU-145
MCF7 = tested on: MCF7
SR = tested on: SR
HCT-15 = tested on: HCT-15
SN12C = tested on: SN12C
SNB-19 = tested on: SNB-19
A549 = tested on: A549
SNB-75 = tested on: SNB-75
T47D = tested on: T47D
M14 = tested on: M14
MDA-N = tested on: MDA-N
RPMI-8226 = tested on: RPMI-8226
SK-OV-3 = tested on: SK-OV-3
Hs-578T = tested on: Hs-578T
SK-MEL-2 = tested on: SK-MEL-2

C/C(=C/CC[C@]1(CO)CC[C@]2(C)[C@H](CC[C@@H]3[C@@]4(C)CC[C@H](OC5OC(CO)C(O)C(O)C5OC5OC(CO)C(O)C(O)C5O)C(C)(C)[C@@H]4CC[C@]32C)[C@H]1O)CO (stereo not given in full)
GI50 (HOP-62): > 100 µM (inactive) | GI50 (SF-268): > 100 µM (inactive) | GI50 (CCRF-CEM): > 100 µM (inactive) | GI50 (OVCAR-4): > 100 µM (inactive) | GI50 (786-0): > 100 µM (inactive) | GI50 (CAKI-1): > 100 µM (inactive) | GI50 (NCI-H226): > 100 µM (inactive) | GI50 (PC-3): > 100 µM (inactive) | GI50 (COLO 205): > 100 µM (inactive) | GI50 (UACC-62): > 100 µM (inactive) | GI50 (NCI-H522): > 100 µM (inactive) | GI50 (HCT-116): > 100 µM (inactive) | GI50 (SK-MEL-28): > 100 µM (inactive) | GI50 (SW-620): > 100 µM (inactive) | GI50 (NCI-H460): > 100 µM (inactive) | GI50 (MOLT-4): > 100 µM (inactive) | GI50 (UO-31): > 100 µM (inactive) | GI50 (IGROV-1): > 100 µM (inactive) | GI50 (NCI-H23): > 100 µM (inactive) | GI50 (BT-549): > 100 µM (inactive) | GI50 (OVCAR-3): > 100 µM (inactive) | GI50 (MDA-MB-435): > 100 µM (inactive) | GI50 (KM12): > 100 µM (inactive) | GI50 (OVCAR-8): > 100 µM (inactive) | GI50 (UACC-257): > 100 µM (inactive) | GI50 (OVCAR-5): > 100 µM (inactive) | GI50 (ACHN): > 100 µM (inactive) | GI50 (A498): > 100 µM (inactive) | GI50 (LOX IMVI): > 100 µM (inactive) | GI50 (RXF 393): > 100 µM (inactive) | GI50 (K562): > 100 µM (inactive) | GI50 (MDA-MB-231): > 100 µM (inactive) | GI50 (SF-295): > 100 µM (inactive) | GI50 (EKVX): > 100 µM (inactive) | GI50 (TK-10): > 100 µM (inactive) | GI50 (Malme-3M): > 100 µM (inactive) | GI50 (HT-29): > 100 µM (inactive) | GI50 (HOP-92): > 100 µM (inactive) | GI50 (U-251): > 100 µM (inactive) | GI50 (SK-MEL-5): > 100 µM (inactive) | GI50 (SF-539): > 100 µM (inactive) | GI50 (NCI/ADR-RES): > 100 µM (inactive) | GI50 (HL-60): > 100 µM (inactive) | GI50 (DU-145): > 100 µM (inactive) | GI50 (MCF7): > 100 µM (inactive) | GI50 (SR): > 100 µM (inactive) | GI50 (HCT-15): > 100 µM | GI50 (SN12C): > 100 µM (inactive) | GI50 (SNB-19): > 100 µM (inactive) | GI50 (A549): > 100 µM (inactive) | GI50 (SNB-75): > 100 µM (inactive) | GI50 (T47D): > 100 µM (inactive) | GI50 (M14): > 100 µM (inactive) | GI50 (MDA-N): > 100 µM (inactive) | GI50 (RPMI-8226): > 100 µM (inactive) | GI50 (SK-OV-3): > 100 µM (inactive) | GI50 (Hs-578T): > 100 µM (inactive)

O=C(O)c1nnsc1-c1ccc(-c2snnc2C(=O)O)cc1
GI50 (HOP-62): > 100 µM (inactive) | GI50 (SF-268): > 100 µM (inactive) | GI50 (CCRF-CEM): 2.94 µM (inactive) | GI50 (OVCAR-4): 29.6 µM (inactive) | GI50 (786-0): 43.2 µM (inactive) | GI50 (CAKI-1): 58.7 µM (inactive) | GI50 (NCI-H226): > 100 µM (inactive) | GI50 (PC-3): 85.9 µM (inactive) | GI50 (COLO 205): > 100 µM (inactive) | GI50 (UACC-62): > 100 µM (inactive) | GI50 (NCI-H522): 56.6 µM (inactive) | GI50 (HCT-116): > 100 µM (inactive) | GI50 (SK-MEL-28): > 100 µM (inactive) | GI50 (SW-620): 39.5 µM (inactive) | GI50 (NCI-H460): 32.1 µM (inactive) | GI50 (MOLT-4): 17.4 µM (inactive) | GI50 (UO-31): > 100 µM (inactive) | GI50 (IGROV-1): > 100 µM (inactive) | GI50 (NCI-H23): > 100 µM (inactive) | GI50 (BT-549): > 100 µM (inactive) | GI50 (SK-MEL-2): > 100 µM (inactive) | GI50 (OVCAR-3): 91.2 µM (inactive) | GI50 (MDA-MB-435): 48.2 µM (inactive) | GI50 (KM12): > 100 µM (inactive) | GI50 (OVCAR-8): > 100 µM (inactive) | GI50 (UACC-257): > 100 µM (inactive) | GI50 (OVCAR-5): > 100 µM (inactive) | GI50 (ACHN): > 100 µM (inactive) | GI50 (A498): > 100 µM (inactive) | GI50 (LOX IMVI): 31.8 µM (inactive) | GI50 (RXF 393): > 100 µM (inactive) | GI50 (K562): 28.5 µM (inactive) | GI50 (MDA-MB-231): > 100 µM (inactive) | GI50 (SF-295): > 100 µM (inactive) | GI50 (EKVX): 91.6 µM (inactive) | GI50 (TK-10): > 100 µM (inactive) | GI50 (Malme-3M): 56.8 µM (inactive) | GI50 (HT-29): > 100 µM (inactive) | GI50 (HOP-92): 68.4 µM (inactive) | GI50 (U-251): > 100 µM (inactive) | GI50 (SK-MEL-5): > 100 µM (inactive) | GI50 (SF-539): 33.7 µM (inactive) | GI50 (NCI/ADR-RES): > 100 µM (inactive) | GI50 (HL-60): 37.7 µM (inactive) | GI50 (DU-145): > 100 µM (inactive) | GI50 (MCF7): 27.7 µM (inactive) | GI50 (SR): 10.5 µM (inactive) | GI50 (HCT-15): 42 µM | GI50 (SN12C): > 100 µM (inactive) | GI50 (SNB-19): > 100 µM (inactive) | GI50 (A549): > 100 µM (inactive) | GI50 (SNB-75): > 100 µM (inactive) | GI50 (T47D): > 100 µM (inactive) | GI50 (M14): > 100 µM (inactive) | GI50 (MDA-N): > 100 µM (inactive) | GI50 (RPMI-8226): 29.4 µM (inactive) | GI50 (SK-OV-3): > 100 µM (inactive) | GI50 (Hs-578T): > 100 µM (inactive)
